The results in this text go back to article PMC8058344, “ARIH1 signaling promotes anti-tumor immunity by targeting PD-L1 for proteasomal degradation” (Nature Communications, 2021).

Structures are written as SMILES. pIC50: −log10 of the molar value.

One assay has as its system PD-L1 Ser279. In words: Immunoblots with phospho-specific antibody against PD-L1 Ser279. In kind it is cell-based, human. The following applies: endogenous (H1975, 2 h) and recombinant (HEK293T, 10 μM, 2 h) PD-L1. The method, then: Fig. 2 Phosphorylation on S279/S283 impairs the stability of PD-L1. a Mapping PD-L1 phosphorylation sites following ES-072 treatment. HEK293T cells were transfected with Flag-PD-L1 and treated with 10 μM ES-072 for 48 h. Immunoprecipitated PD-L1 was analyzed by mass spectrometry following phosphopeptide enrichment. Peptide ionization data corresponding to Ser279/283 are shown. b Schematic diagram of phosphorylated sites on PD-L1. Full-length PD-L1 was separated into an extracellular domain (ECD) and intracellular domain (ICD). SP: signal peptide; TM: transmembrane domain. c Schematic diagram of phosphorylated sites, S279 and S283 in the ICD of PD-L1. Positions of phosphorylated sites were labeled in red. […] Scale bars represent 50 μm. i, j Quantification of IHC analysis for p-PD-L1 (Ser279) (i) and PD-L1 (j) in h. […]
For western blot analysis, cells were collected and washed with PBS, then lysed in radioimmunoprecipitation assay (RIPA) buffer (1% Triton X-100, 100 mM Tris-HCl pH 8.8, 100 mM NaCl, 0.5 mM EDTA). […] The supernatant was collected and the protein concentration was measured by bicinchoninic acid reaction. […] Signals were detected using chemiluminescence reagents (#4AW001-500, 4A649 Biotech, Co.).

A further assay concerns the target KDR(VEGFR2) (Homo sapiens, UniProt P35968). In words: In vitro kinase specificity profiling. The format is biochemical.
For the next assay, the system named is PD-L1 in U937 cells. In words: PD-L1 levels in U937 cells by western blotting and flow cytometry. The format is cell-based, human. To be noted: western blotting and flow cytometry, 10 μM, 12 h. The procedure: Fig. 1 EGFR inhibitors were screened to reduce membrane PD-L1 levels. a High-throughput screening of 2125 FDA-approved drugs or drug candidates. U937 cells were incubated with IFNγ (100 ng/mL) for 48 h, treated with the drugs at 10 μM for 12 h. Ruxolitinib (Rux) was used as a positive control. The hit compounds that induced the decrease of PD-L1 levels are shown in blue. The depth of blue represents decreased level of PD-L1. The heatmap represents the targeted pathways obtained from the high-throughput screening, based upon decreased membrane PD-L1 level detected by flow cytometry. b Immunoblotting of PD-L1 in U937 cells treated with ES-072 (ES) or AZD9291 (AZD) at indicated concentrations for 12 h. ES and AZD are EGFR inhibitors. c, d Median fluorescence intensity (MFI) (c) and relative quantification (d) of PD-L1 in U937 cells treated with 10 μM ES-072 or 10 μM AZD9291 for 12 h. Data represent means ± SEM, n = 18, 6 independent repeats, ****P < 0.0001. e–g Immunoblotting (e, f) and flow cytometry (g) analysis of PD-L1 levels in U937 cells treated with 10 μM ES-072 or 10 μM AZD9291 for the indicated times. h, i Immunoblottings (h) of PD-L1 and β-TrCP, relative quantification (i) of PD-L1 MFI in H1975 cells transfected with non-targeting siRNA (si-CTRL) or β-TrCP siRNAs (si-β-TrCP) and treated with or without 10 μM ES-072/AZD9291 for 12 h. Data represent means ± SEM, n = 9, 3 independent repeats, NS: no significant; ****P < 0.0001. j–l Immunoblotting (j) and flow cytometry analysis (k) with relative quantification (l) of PD-L1 in H1975 cells treated with 10 μM ES-072 or AZD9291, and/or 5 μM LY2090314 (LY) for 12 h. LY is a GSK3 inhibitor. […]
For western blot analysis, cells were collected and washed with PBS, then lysed in radioimmunoprecipitation assay (RIPA) buffer (1% Triton X-100, 100 mM Tris-HCl pH 8.8, 100 mM NaCl, 0.5 mM EDTA). […] The supernatant was collected and the protein concentration was measured by bicinchoninic acid reaction. […] Signals were detected using chemiluminescence reagents (#4AW001-500, 4A649 Biotech, Co.). […]

Sequence of KDR(VEGFR2) (P35968 20-1356, species assumed): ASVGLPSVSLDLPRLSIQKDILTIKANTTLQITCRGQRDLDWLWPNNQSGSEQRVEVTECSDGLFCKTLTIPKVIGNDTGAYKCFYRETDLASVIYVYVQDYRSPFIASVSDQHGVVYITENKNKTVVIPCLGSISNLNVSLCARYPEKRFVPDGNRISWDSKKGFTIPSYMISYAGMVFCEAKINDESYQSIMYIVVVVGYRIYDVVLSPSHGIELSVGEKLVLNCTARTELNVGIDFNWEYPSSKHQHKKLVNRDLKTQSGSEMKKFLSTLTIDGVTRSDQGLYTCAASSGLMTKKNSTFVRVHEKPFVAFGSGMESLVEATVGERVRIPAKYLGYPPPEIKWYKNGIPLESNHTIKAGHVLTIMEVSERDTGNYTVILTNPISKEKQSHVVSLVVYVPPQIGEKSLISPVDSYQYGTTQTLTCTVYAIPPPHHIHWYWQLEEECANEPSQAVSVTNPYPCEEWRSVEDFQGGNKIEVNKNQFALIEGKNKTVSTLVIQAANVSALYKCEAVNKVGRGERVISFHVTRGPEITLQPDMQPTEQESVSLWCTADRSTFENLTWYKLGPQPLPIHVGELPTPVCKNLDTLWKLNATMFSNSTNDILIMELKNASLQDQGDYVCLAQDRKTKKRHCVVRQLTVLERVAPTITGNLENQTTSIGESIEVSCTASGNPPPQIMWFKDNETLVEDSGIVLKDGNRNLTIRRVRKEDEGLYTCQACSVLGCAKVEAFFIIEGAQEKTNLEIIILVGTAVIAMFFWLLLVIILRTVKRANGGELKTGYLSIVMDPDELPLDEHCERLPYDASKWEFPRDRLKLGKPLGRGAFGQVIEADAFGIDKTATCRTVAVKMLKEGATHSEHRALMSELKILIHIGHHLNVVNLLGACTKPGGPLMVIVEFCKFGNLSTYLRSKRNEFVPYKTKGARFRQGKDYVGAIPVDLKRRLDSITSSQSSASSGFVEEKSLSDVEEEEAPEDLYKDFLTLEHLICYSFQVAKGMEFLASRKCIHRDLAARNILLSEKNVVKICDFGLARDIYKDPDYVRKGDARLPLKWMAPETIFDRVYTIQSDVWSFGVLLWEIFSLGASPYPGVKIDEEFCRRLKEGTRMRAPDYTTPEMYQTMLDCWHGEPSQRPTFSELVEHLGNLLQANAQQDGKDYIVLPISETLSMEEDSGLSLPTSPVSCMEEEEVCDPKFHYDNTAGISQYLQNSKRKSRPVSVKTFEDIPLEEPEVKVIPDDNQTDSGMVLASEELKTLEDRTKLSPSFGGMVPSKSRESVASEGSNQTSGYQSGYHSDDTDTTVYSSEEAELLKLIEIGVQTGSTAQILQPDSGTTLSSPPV

Regarding `C=CC(=O)Nc1cccc(Nc2nc(Nc3ccc(N4CCN(C)CC4)nc3OC)ncc2C(F)(F)F)c1` [ES-072], in the assay with PD-L1 Ser279, the “phosphorylation of PD-L1 at Ser279” value is given as “robust phosphorylation”. The compound further gave a pIC50 against KDR(VEGFR2) of 5.28. Moreover, the “IFNγ-induced membranal PD-L1 levels” value with PD-L1 in U937 cells is “dramatically reduced”.
